Experimental data: article PMC9496258, “Trace Immunosensing of Multiple Neonicotinoid Insecticides by a Novel Broad-Specific Antibody Obtained from a Rational Screening Strategy” (Biosensors, 2022)
Converted amounts (≈) assume the structure as drawn.

Legend:
[1] = test system: 6F11-mAb; experiment: icELISA with purified 6F11-mAb; assay type: binding, mouse; settings: for CR / IC50: 6F11-mAb; for CR: cross-reactivity relative to imidacloprid; for IC50: imidacloprid-OVA 10 µg/mL; for recognition by the antibody (6F11): in words
Method: (§1) Procedures for the immunization, cell fusion and clone selection were similar to those described in our previous publications, and indirect non-competitive and competitive ELISAs were sequentially used for hybridoma screening. The generated mAb was purified by protein G from the ascitic fluid and then stored at −20 °C for further analysis. A mouse antibody isotyping kit was used to determine the isotypes of the mAbs.
(§2) Checkerboard titration was carried out by icELISAs with serial dilutions of the antibody and coating antigen (imidacloprid-OVA). […] The specificity and sensitivity were determined by icELISAs. Briefly, the mixture of standards with different concentrations and equal volume of antibody was added into the reaction wells of pre-coated plates. Standard curves were fitted into a four-parameter logarithmic equation: Y = A2 + [(A1 − A2)/1 + (X/X0)^p], and the half-maximal inhibitory concentration (IC50, defined as the assay sensitivity, was used to calculate cross-reactivity rate(CR).
(§3) Under the optimal working concentrations of 10 µg/mL for imidacloprid-OVA, icELISAs with high sensitivity to neonicotinoid pesticides and metabolites were established.

[2] = test system: 6F11-rAb; experiment: icELISA with full-length recombinant 6F11-rAb; assay type: binding, mouse; settings: for CR: cross-reactivity relative to imidacloprid; for IC50: imidacloprid-OVA 10 µg/mL
Method: Transient production in the HEK 293F suspension cells was performed as described. Briefly, cells were prepared with viable cell density around 1.5 × 10^6 cells/mL and viability above 95 % in 180 mL serum-free culture medium in 500 mL Nunc Erlenmeyer flasks and incubated at 37 °C in 5% CO2 atmosphere and shaken at 130 rpm in an orbital shaker for 2 h. A total of 90 μg of the plasmids (VH:VL = 2:3) mixed with transfection reagent were pre-warmed for 15 min and then transiently transfected into HEK 293F. After 5 days of incubation, the supernatant was collected and purified by protein G. The size of the purified full-length rAb was identified by SDS-PAGE.
as §2, §3

[3] = test system: mAb 1A5; experiment: icELISA with mAb 1A5 (hybridoma supernatant), coating antigen imidacloprid-OVA; assay type: binding, mouse; settings: for CR: mAb 1A5, cross-reactivity relative to imidacloprid; for IC50: mAb 1A5, hybridoma supernatant, icELISA
Method: as §1, §2
(§4) Moreover, sensitivity (IC50) and CR to eight neonicotinoids were assessed by icELISAs.

[4] = test system: mAb 4B1; experiment: icELISA with mAb 4B1 (hybridoma supernatant), coating antigen imidacloprid-OVA; assay type: binding, mouse; settings: for CR: mAb 4B1, cross-reactivity relative to imidacloprid; for IC50: mAb 4B1, hybridoma supernatant, icELISA
Method: as §1, §2, §4

[5] = test system: mAb 5C3; experiment: icELISA with mAb 5C3 (hybridoma supernatant), coating antigen imidacloprid-OVA; assay type: binding, mouse; settings: for CR: mAb 5C3, cross-reactivity relative to imidacloprid; for IC50: mAb 5C3, hybridoma supernatant, icELISA
Method: as §1, §2, §4

[6] = test system: mAb 6F11; experiment: icELISA with mAb 6F11 (hybridoma supernatant), coating antigen imidacloprid-OVA; assay type: binding, mouse; settings: for CR: mAb 6F11, cross-reactivity relative to imidacloprid; for IC50: mAb 6F11, hybridoma supernatant, icELISA
Method: as §1, §2, §4

[7] = test system: 6F11-rAb; experiment: GNIS (gold lateral-flow immunosensing strip) assay based on 6F11-rAb; assay type: binding, mouse; settings: for limit detection of T-line disappearance (visual detection limit): normal visual detection; for IC50: with a strip reader
Excerpt: The preparation method for the conjugate of rAb-gold nanoparticles was based on a previous report. A colloid gold lateral-flow immunosensing strip consisted of three pads (glass fiber membrane, NC membrane and absorption membrane) using a one-sided adhesive polyvinyl chloride sheet as a support. The prepared imidaclothiz-OVA conjugate and goat anti-mouse IgG antibody were immobilized onto the NC membrane as the test line (T line) and control line (C line), respectively. For analysis, standard solutions at different concentrations were added to the 96-well microtiter plate, and then the strip was inserted into the well. After 15 min, the signal was observed using a portable reader (Helmen, Suzhou, China). Standard curves were gained by plotting the signal ratio of the T line to the C line (T/C) against the analyte concentration, and they were also fitted into the four-parameter logarithmic equation.
The 6F11-rAb was used to establish a rapid and reliable GNIS assay, and the limit detection of T-line disappearance was 5 ng/mL for imidacloprid, clothianidin and imidaclothiz and over 100 ng/mL for thiacloprid, acetamiprid and nitenpyram, judged by normal visual detection (Figure 5). […] Therefore, imidacloprid, clothianidin and imidaclothiz, with better sensitivity, were further determined by spiking experiment.

[8] = test system: anti-imidacloprid monoclonal antibody; design: method as in PMID 31862564; settings: anti-imidacloprid mAb, lateral-flow immunoassay; cited from earlier work
[9] = test system: positive hybridoma clones; experiment: Dual-target icELISA hybridoma screening; assay type: binding, mouse; settings: analyte at 1 µg/mL, nine clones
Method: as §1
After cell fusion and the primary screening by non-competitive ELISAs, 37 positive wells of hybridomas giving the absorbance values higher than 0.5 were picked out and filled with fresh culture medium. On the next day, they were quickly rechecked by icELISAs to qualitatively test the ability of recognizing both imidacloprid and acetamiprid. […] Therefore, the top four broad-specific clones were selected and screened with imidacloprid and acetamiprid until stable hybridoma lines were obtained. Then the culture supernatants were collected for characterization of the four kinds of broad-specific mAbs.

[10] = test system: anti-imidaclothiz mAb; design: method as in PMID 21299253; settings: anti-imidaclothiz mAb-based ELISA; cited from earlier work

`O=[N+]([O-])/C=C1\NCCN1Cc1ccc(Cl)nc1` [6-Cl-PMNI] showed a CR [1] of 132.9%, an IC50 [1] of 0.20 ng/mL and a CR [2] of 100.6%. It also gave an IC50 [2] of 0.36 ng/mL.

Work on `C/C(=N\C#N)N(C)Cc1ccc(Cl)nc1` [Acetamiprid, acetamiprid] yielded a CR [3] of 2.6%, an IC50 [3] of 43.34 ng/mL and a CR [4] of 3.1%. It also gave an IC50 [4] of 92.77 ng/mL, a CR [5] of 0.4% and an IC50 [5] of 58.52 ng/mL. For the same compound, the CR [6] was 9.5%, the IC50 [6] was 6.24 ng/mL and the CR [1] was 4.5%. The IC50 [1] was 5.92 ng/mL, the CR [2] was 4.0% and the IC50 [2] was 9.04 ng/mL. The “limit detection of T-line disappearance (visual detection limit)” value (“limit detection of T-line disappearance” for short) [7] was “over 100 ng/mL” and the cross-reactivity [8] was 1.1%.

For `CN/C(=N\[N+](=O)[O-])NCc1cnc(Cl)s1` [Clothianidin, clothianidin], the CR [3] was 63.3%, the IC50 [3] was 1.80 ng/mL and the CR [4] was 4.9%. The IC50 [4] was 59.41 ng/mL, the CR [5] was 20.2% and the IC50 [5] was 1.19 ng/mL. For the same compound, the CR [6] was 41.3%, the IC50 [6] was 1.43 ng/mL and the CR [1] was 58.3%. The IC50 [1] was 0.46 ng/mL, the CR [2] was 41.7% and the IC50 [2] was 0.86 ng/mL. For the same compound, the “limit detection of T-line disappearance” value [7] was 5 ng/mL, the IC50 [7] was 0.5 ng/mL (≈ 2 nM) and the cross-reactivity [8] was 4.1%.

With `CN/C(=N/CC1CCOC1)N[N+](=O)[O-]` (centres unmarked) [Dinotefuran, dinotefuran] the CR [3] was less than 0.1%, the CR ([3]; listed as dinotefuran) was “without obvious CR” and the IC50 [3] was greater than 1000 ng/mL. For the same compound, the CR [4] was less than 0.1%, the CR ([4]; listed as dinotefuran) was “no CR” and the IC50 [4] was greater than 1000 ng/mL. The CR [5] was less than 0.1%, the CR ([5]; listed as dinotefuran) was “without obvious CR” and the IC50 [5] was greater than 1000 ng/mL. For the same compound, the CR [6] was less than 0.1%, the CR ([6]; listed as dinotefuran) was “without obvious CR” and the IC50 [6] was greater than 1000 ng/mL. It also gave a CR [1] of less than 0.1%, an IC50 [1] greater than 1000 ng/mL and a CR [2] of less than 0.1%. For the same compound, the IC50 [2] was greater than 1000 ng/mL.

`O=[N+]([O-])NC1=NCCN1Cc1ccc(Cl)nc1` [Imidacloprid, imidacloprid] showed a CR [3] of 100.0%, an IC50 [3] of 1.14 ng/mL and a CR [4] of 100.0%. For the same compound, the IC50 [4] was 2.90 ng/mL, the CR [5] was 100.0% and the IC50 [5] was 0.24 ng/mL. It also gave a CR [6] of 100.0%, an IC50 [6] of 0.59 ng/mL and a CR [1] of 100.0%. For the same compound, the IC50 [1] was 0.27 ng/mL, the CR [2] was 100.0% and the IC50 [2] was 0.36 ng/mL. For the same compound, the “limit detection of T-line disappearance” value [7] was 5 ng/mL, the IC50 [7] was 0.9 ng/mL (≈ 3.52 nM) and the inhibition rate [9] was greater than 50%. The cross-reactivity [10] was 91.7%.

Compound `O=[N+]([O-])/N=C1\NCCN1Cc1cnc(Cl)s1` [Imidaclothiz, imidaclothiz] has a CR [3] of 126.7%, an IC50 [3] of 0.90 ng/mL and a CR [4] of 7.1%. For the same compound, the IC50 [4] was 41.09 ng/mL, the CR [5] was 8.6% and the IC50 [5] was 2.79 ng/mL. The CR [6] was 122.9%, the IC50 [6] was 0.48 ng/mL and the CR [1] was 115.1%. For the same compound, the IC50 [1] was 0.23 ng/mL, the CR [2] was 119.8% and the IC50 [2] was 0.30 ng/mL. For the same compound, the “limit detection of T-line disappearance” value [7] was 5 ng/mL and the IC50 [7] was 0.7 ng/mL (≈ 2.67 nM).

For `O=[N+]([O-])/N=C1\NCOCN1Cc1cnc(Cl)s1` [N-desmethyl thiamethoxam], the CR [1] was 124.8%, the IC50 [1] was 0.21 ng/mL and the “recognition by the antibody (6F11)” value [1] was “very high affinity”. The CR [2] was 67.8% and the IC50 [2] was 0.53 ng/mL.

Compound `CCN(Cc1ccc(Cl)nc1)/C(=C/[N+](=O)[O-])NC` [Nitenpyram, nitenpyram] has a CR [3] of 3.7%, an IC50 [3] of 31.19 ng/mL and a CR [4] of less than 0.1%. The CR ([4]; listed as nitenpyram) was “no CR”, the IC50 [4] was greater than 1000 ng/mL and the CR [5] was 0.8%. For the same compound, the IC50 [5] was 30.66 ng/mL, the CR [6] was 8.2% and the IC50 [6] was 7.16 ng/mL. It also gave a CR [1] of 4.8%, an IC50 [1] of 5.57 ng/mL and a CR [2] of 5.1%. The IC50 [2] was 7.07 ng/mL and the “limit detection of T-line disappearance” value [7] was “over 100 ng/mL”.

For `N#C/N=C1\SCCN1Cc1ccc(Cl)nc1` [Thiacloprid, thiacloprid], the CR [3] was 2.7%, the IC50 [3] was 42.91 ng/mL and the CR [4] was 10.2%. It also gave an IC50 [4] of 28.37 ng/mL, a CR [5] of 1.8% and an IC50 [5] of 13.39 ng/mL. For the same compound, the CR [6] was 21.2%, the IC50 [6] was 2.78 ng/mL and the CR [1] was 20.6%. For the same compound, the IC50 [1] was 1.30 ng/mL, the CR [2] was 12.5% and the IC50 [2] was 2.89 ng/mL. The “limit detection of T-line disappearance” value [7] was “over 100 ng/mL”.

For `CN1COCN(Cc2cnc(Cl)s2)/C1=N\[N+](=O)[O-]` [Thiamethoxam, thiamethoxam], the CR [3] was less than 0.1%, the CR ([3]; listed as thiamethoxam) was “without obvious CR” and the IC50 [3] was greater than 1000 ng/mL. The CR [4] was less than 0.1%, the CR ([4]; listed as thiamethoxam) was “no CR” and the IC50 [4] was greater than 1000 ng/mL. The CR [5] was less than 0.1%, the CR ([5]; listed as thiamethoxam) was “without obvious CR” and the IC50 [5] was greater than 1000 ng/mL. For the same compound, the CR [6] was less than 0.1%, the CR ([6]; listed as thiamethoxam) was “without obvious CR” and the IC50 [6] was greater than 1000 ng/mL. The CR [1] was less than 0.1%, the IC50 [1] was greater than 1000 ng/mL and the “recognition by the antibody (6F11)” value [1] was “cannot recognize”. The CR [2] was less than 0.1% and the IC50 [2] was greater than 1000 ng/mL.
